Measured values: US20080255206A1, “Rxr Agonists and Antagonists, Alone or in Combination with Ppar Ligands, in the Treatment of Metabolic and Cardiovascular Diseases” (priority 2005, published 2008)

Experiments:
RXRβ = target: T1, RXRβ (Homo sapiens, UniProt P28702); test: Retinoid activation assay, RXRβ (Schneider SL-3 cells, luciferase reporter); format: cell-based; conditions: read-out: Activation EC50 RXR β
T1 construct: Full length RXR cDNA is used for transfection; expressed in transfected cells; host or cells: Schneider SL-3 cells (Drosophila)
T1 sequence (P28702 1-533): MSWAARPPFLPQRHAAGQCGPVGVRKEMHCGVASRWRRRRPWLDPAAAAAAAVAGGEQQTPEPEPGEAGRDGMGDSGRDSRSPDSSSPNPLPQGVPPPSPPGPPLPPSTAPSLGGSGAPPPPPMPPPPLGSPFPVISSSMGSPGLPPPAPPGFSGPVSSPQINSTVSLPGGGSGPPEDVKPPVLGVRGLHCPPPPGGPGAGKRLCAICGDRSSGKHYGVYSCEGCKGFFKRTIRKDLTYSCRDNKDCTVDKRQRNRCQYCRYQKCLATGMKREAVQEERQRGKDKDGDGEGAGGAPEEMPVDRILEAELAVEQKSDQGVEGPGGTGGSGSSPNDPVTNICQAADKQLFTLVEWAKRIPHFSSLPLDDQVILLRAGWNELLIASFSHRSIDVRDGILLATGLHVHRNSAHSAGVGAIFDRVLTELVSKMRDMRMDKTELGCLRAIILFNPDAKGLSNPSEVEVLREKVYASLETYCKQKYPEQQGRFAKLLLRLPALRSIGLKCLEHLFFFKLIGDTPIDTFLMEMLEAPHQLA
Experimental: (§1) Full length RXR cDNA is used for transfection. As reporter system, the luciferase gene is used in a construct with three copies of a RXR response element from rat CRBP gene, (formerly RARE from betaRAR gene), fused to alcoholdehydrogenase gene promoter in the plasmid pGL2-basic. Schneider SL-3 cells from Drosophila are transiently transfected 3-4 h before the experiment by the Ca-phosphate-DNA coprecipitation method. […] At the end of the incubation, the cell supernatants are assayed for luciferase activity. Results are given as EC50 (nM), the concentration leading to half-maximal activation.

RXRγ [1] = target: T2, RXRγ (Homo sapiens, UniProt P48443); test: Retinoid binding assay, RXRγ; design: made in house; host or cells: E. coli; conditions: [3H] 9-cis retinoic acid 20 nM; read-out: Binding Affinity IC50 RXR γ
T2 sequence (P48443 1-463): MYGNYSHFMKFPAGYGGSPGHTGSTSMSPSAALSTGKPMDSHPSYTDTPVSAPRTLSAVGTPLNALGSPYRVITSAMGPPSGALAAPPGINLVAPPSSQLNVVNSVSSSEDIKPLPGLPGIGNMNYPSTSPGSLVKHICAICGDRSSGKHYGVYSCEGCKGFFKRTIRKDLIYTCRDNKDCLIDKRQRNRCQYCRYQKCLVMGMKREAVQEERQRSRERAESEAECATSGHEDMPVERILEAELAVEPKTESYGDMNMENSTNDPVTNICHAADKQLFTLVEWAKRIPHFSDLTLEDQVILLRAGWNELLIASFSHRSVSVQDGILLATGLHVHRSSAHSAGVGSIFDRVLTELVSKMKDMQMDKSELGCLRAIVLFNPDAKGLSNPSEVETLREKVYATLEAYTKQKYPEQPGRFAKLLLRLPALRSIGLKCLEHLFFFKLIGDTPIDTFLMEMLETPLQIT
Description: (§2) The DEF domains of RAR's and the full length RXR's, expressed in E.coli, are used to measure competitive retinoid binding. […] 9-cis retinoic acid (for RXR's), respectively. […] Separation of bound from free radioactivity is achieved by charcoal/dextran (RAR's) or by desalting columns (RXR's). […] Retinoid Activation Assays

PPARγ/RXRα Heterodimer = target: T3, PPARγ/RXRα Heterodimer (Homo sapiens, UniProt P19793); test: PPARγ/RXRα heterodimer activation (transactivation) assay; format: cell-based
T3 construct: co-transfected with plasmids expressing the full length RXR heteropartner receptor; expressed in transfected cells
T3 sequence (P19793 1-462): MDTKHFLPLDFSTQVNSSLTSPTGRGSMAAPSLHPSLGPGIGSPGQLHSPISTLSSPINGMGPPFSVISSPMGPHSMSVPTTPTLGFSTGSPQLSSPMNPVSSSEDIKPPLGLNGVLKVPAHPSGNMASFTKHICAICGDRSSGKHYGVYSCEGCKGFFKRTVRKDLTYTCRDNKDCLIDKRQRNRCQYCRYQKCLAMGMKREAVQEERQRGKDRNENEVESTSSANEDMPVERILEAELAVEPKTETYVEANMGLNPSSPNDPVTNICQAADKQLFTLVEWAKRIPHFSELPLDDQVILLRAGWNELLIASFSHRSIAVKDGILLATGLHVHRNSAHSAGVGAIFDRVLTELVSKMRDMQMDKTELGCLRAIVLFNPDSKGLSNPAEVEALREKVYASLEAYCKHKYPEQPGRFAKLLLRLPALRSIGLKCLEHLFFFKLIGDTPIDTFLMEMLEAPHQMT
T3 sequence (P37231 1-505 partner): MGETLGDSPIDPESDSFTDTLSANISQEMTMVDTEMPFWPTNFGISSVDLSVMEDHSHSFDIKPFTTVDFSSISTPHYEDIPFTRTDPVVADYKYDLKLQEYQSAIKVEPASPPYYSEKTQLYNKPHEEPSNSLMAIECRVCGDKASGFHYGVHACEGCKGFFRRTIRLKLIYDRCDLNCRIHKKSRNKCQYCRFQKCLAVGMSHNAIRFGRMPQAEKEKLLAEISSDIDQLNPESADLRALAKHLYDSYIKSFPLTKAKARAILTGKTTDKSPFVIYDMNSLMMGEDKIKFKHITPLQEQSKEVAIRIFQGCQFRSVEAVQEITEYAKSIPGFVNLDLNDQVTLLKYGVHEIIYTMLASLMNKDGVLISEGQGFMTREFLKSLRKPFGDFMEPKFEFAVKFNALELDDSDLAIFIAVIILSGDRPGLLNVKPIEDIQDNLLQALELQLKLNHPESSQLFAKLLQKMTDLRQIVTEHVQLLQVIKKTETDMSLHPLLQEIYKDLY
Description: (§3) Nuclear hormone receptor (NHR) ligand dependent transcriptional transactivation assay.
Heterodimer reporter assays are potentially more important selection criteria for synthetic agonistic NHR ligands as they embody a more natural situation. Basically plasmids expressing the recombinant full length NHR are co-transfected with plasmids expressing the full length RXR heteropartner receptor and a reporter plasmid containing several copies of the natural responsive elements for the respective NHR driving the luciferase reporter gene.

RXRγ [2] = target: T2, RXRγ; test: Retinoid activation assay, RXRγ (Schneider SL-3 cells, luciferase reporter); format: cell-based; conditions: read-out: Activation EC50 RXR γ
Experimental: as §1

RXRα [3] = target: T4, RXRα (Homo sapiens, UniProt P19793); test: Retinoid activation assay, RXRα (Schneider SL-3 cells, luciferase reporter); format: cell-based; conditions: read-out: Activation EC50 RXR α
T4 sequence (P19793 1-462): T3 sequence (P19793 1-462)
Experimental: as §1

RXRα [4] = target: T4, RXRα; test: Retinoid binding assay, RXRα; design: made in house; host or cells: E. coli; conditions: [3H] 9-cis retinoic acid 20 nM; read-out: Binding Affinity IC50 RXR α
Description: as §2

RXRα Homodimer = target: T5, RXRα Homodimer (Homo sapiens, UniProt P19793); test: RXRα homodimer activation (transactivation) assay; format: cell-based
T5 construct: expressed in transfected cells; host or cells: mammalian cells (BHK21, CV1, etc)
T5 sequence (P19793 1-462): T3 sequence (P19793 1-462)
Description: as §3
This secondary in vitro functional assay to characterize hits from the primary ligand binding screens is a GAL4-LBD transactivation assay. The Gal4-LBD protein consists of an in frame fusion of the transcription factor galactose 4 DNA binding domain from S.cerevisiae with the ligand binding domain (LBD) of a particular NHR. Briefly, a plasmid construct expressing the recombinant chimeric receptor is co-transfected into mammalian cells (BHK21, CV1, etc) with a luciferase reporter plasmid containing several copies in tandem of the GAL4 binding sites (promoter recognition elements) upstream from the minimal promoter driving the luciferase gene. The transfected cells are treated with compounds for 12-24 hours, lysates are produced and assayed for luciferase activity and normalized to internal standards such as GH, growth hormone or SEAP, secreted alkaline phosphatase. Ligand binding stabilizes the LBD conformation that recruits endogenous co-factors that mediate eventually the increased transcriptional activity of the luciferase reporter gene. By comparing the activation profile of a reference ligand or a natural ligand, the EC50 values for agonistic activity of a particular ligand can be measured. The extent of activation that can be measured is indicative of a partial, respectively full agonistic activity of a ligand. […]

RARβ = target: T6, RARβ (Homo sapiens, UniProt P10826); test: Retinoid binding assay, RARβ; design: The DEF domains of RAR's and the full length RXR's, expressed in E.coli; made in house; host or cells: E. coli; conditions: read-out: Binding Affinity IC50 RAR β
T6 sequence (P10826 183-417 limits assumed): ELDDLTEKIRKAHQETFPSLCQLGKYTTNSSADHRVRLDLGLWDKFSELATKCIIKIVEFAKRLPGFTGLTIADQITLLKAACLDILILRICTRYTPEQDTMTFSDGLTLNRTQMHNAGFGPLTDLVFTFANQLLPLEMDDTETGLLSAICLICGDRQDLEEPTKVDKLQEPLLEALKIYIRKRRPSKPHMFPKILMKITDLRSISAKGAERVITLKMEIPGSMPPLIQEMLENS
Description: as §2

RARα = target: T7, RARα (Homo sapiens, UniProt P10276); test: Retinoid binding assay, RARα; design: The DEF domains of RAR's and the full length RXR's, expressed in E.coli; made in house; host or cells: E. coli; conditions: read-out: Binding Affinity IC50 RAR α
T7 sequence (P10276 183-417 limits assumed): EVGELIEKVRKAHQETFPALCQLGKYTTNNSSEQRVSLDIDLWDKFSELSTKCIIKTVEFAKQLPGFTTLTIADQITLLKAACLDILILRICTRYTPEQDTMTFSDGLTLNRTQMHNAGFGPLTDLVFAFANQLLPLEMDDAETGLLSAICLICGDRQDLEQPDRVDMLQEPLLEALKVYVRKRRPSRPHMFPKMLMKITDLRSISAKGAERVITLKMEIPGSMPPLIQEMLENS
Description: as §2

RARγ = target: T8, RARγ (Homo sapiens, UniProt P13631); test: Retinoid binding assay, RARγ; conditions: read-out: Binding Affinity IC50 RAR γ
T8 construct: The DEF domains of RAR's and the full length RXR's, expressed in E.coli; made in house; host or cells: E. coli
T8 sequence (P13631 185-419 limits assumed): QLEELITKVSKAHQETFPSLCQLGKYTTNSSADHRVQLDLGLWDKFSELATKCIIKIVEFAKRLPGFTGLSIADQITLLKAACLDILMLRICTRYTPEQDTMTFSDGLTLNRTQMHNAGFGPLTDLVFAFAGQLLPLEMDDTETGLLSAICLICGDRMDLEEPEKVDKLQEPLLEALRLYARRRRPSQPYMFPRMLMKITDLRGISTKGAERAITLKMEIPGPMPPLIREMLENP
Description: as §2

Row | SMILES | EC50 (RXRβ) [nM] | IC50 (RXRγ [1]) [nM] | EC50 (PPARγ/RXRα Heterodimer) [nM] | EC50 (RXRγ [2]) [nM] | EC50 (RXRα [3]) [nM] | IC50 (RXRα [4]) [nM] | EC50 (RXRα Homodimer) [nM] | IC50 (RARβ) [nM] | IC50 (RARα) [nM] | IC50 (RARγ) [nM]
1 | CCc1cc2c(cc1\C(C)=C/C=C/C(C)=C/C(=O)O)CCCC2C (racemic) [Compound 11, (2E,4E,6Z)-(RS)-7-(3-Ethyl-5-methyl-5,6,7,8-tetrahydro-naphthalen-2-yl)-3-methyl-octa-2,4,6-trienoic acid] | 17 | 56 | 10 | 37 | 2.1 | 65 | 2 |  |  | 
2 | CCCOc1cc2c(cc1[C@@H]1C[C@@H]1/C=C/C(C)=C/C(=O)O)C(C)(C)CCC2(C)C (racemic) [Compound 22, (2E,4E)-3-Methyl-5-[(1RS,2RS)-2-(5,5,8,8-tetramethyl-3-propoxy-5,6,7,8-tetrahydro-naphthalen-2-yl)-cyclopropyl]-penta-2,4-dienoic acid] | > 10000 | 700 | > 30 | > 10000 | > 10000 | 300 | > 10000 |  |  | 
3 | CC(/C=C/[C@@H]1C[C@@H]1c1ccc2c(c1)C(C)(C)CCC2(C)C)=C\C(=O)O (stereo in doubt) [Compound 10, (2E,4E)-3-Methyl-5-[(1S,2S)-2-(5,5,8,8-tetramethyl-5,6,7,8-tetrahydro-naphthalen-2-yl)-cyclopropyl]-penta-2,4-dienoic acid] | 28 | 122 | 6 | 65 | 2.6 | 110 | 2.6 |  |  | 
4 | CCCOc1cc2c(cc1\C(C)=C/C=C/C(C)=C/C(=O)O)C(C)(C)CCC2(C)C [Compound 23, (2E,4E,6Z)-3-Methyl-7-(5,5,8,8-tetramethyl-3-propoxy-5,6,7,8-tetrahydro-naphthalen-2-yl)-octa-2,4,6-trienoic acid] | > 10000 | 68 |  | > 10000 |  |  |  | 3500 | 3100 | 2800
